Legend:
[1] = biological target: T1, Human vanilloid receptor (hVR1) (Homo sapiens, UniProt Q8NER1); test: Capsaicin-induced Ca2+ influx in the human VR1-transfected CHO cell line (Assay 1); assay type: cell-based; settings: human VR1-CHOluc9aeq cells, stimulation with 10 nM capsaicin, Fluo-3 fluorescence (FDSS-3000); read-out: Activity Class (IC50)
T1 construct: expressed in transfected cells
Source text: [Measurement of Capsaicin-induced Ca^2+ influx in the Human VR1-transfected CHO Cell Line] (Assay 1)
• (1) Establishment of the Human VR1-CHOluc9aeq Cell Line • Human vanilloid receptor (hVR1) cDNA was cloned from libraries of axotomized dorsal root ganglia (WO 00/29577). The cloned hVR1 cDNA was constructed with pcDNA3 vector and transfected into a CHOluc9aeq cell line. The cell line contains aequorin and CRE-luciferase reporter genes as read-out signals. The transfectants were cloned by limiting dilution in selection medium (DMEM/F12 medium (Gibco BRL) supplemented with 10%
FCS, 1.4 mM Sodium pyruvate, 20 mM HEPES, 0.15% Sodium bicarbonate, 100 U/ml penicillin, 100 μg/ml streptomycin, 2 mM glutamine, non-essential amino acids and 2 mg/ml G418). Ca^2+ influx was examined in the capsaicin-stimulated clones. A high responder clone was selected and used for furter experiments in the project. The human VR1-CHOluc9aeq cells were maintained in the selection medium and passaged every 3-4 days at 1-2.5×10^5 cells/flask ([…]). • (2) Measurement of Ca^2+ Influx Using FDSS-3000 • Human VR1-CHOluc9aeq cells were suspended in a culture medium which is the same as the selection medium except for G418 and seeded at a density of 1,000 cells per well into 384-well plates (black walled clear-base/Nalge Nunc International). Following the culture for 48 hrs the medium was changed to 2 μM Fluo-3 AM (Molecular Probes) and 0.02% Puronic F-127 in assay buffer (Hank's balanced salt solution (HBSS), 17 mM HEPES (pH7.4), 1 mM Probenecid, 0.1% BSA) and the cells were incubated for 60 min at 25° C. After washing twice with assay buffer the cells were incubated with a test compound or vehicle for 20 min at 25° C. Mobilization of cytoplasmic Ca^2+ was measured by FDSS-3000 (λex=488 nm, λem=540 nm/Hamamatsu Photonics) for 60 sec after the stimulation with 10 nM capsaicin. Integral R was calculated and compared with controls. [Measurement of the Capsaicin-induced Ca^2+ Influx in Primary Cultured Rat Dorsal Root Ganglia Neurons] (Assay 2) • (1) Preparation of Rat Dorsal Root Ganglia Neurons • New born Wister rats (5-11 days) were sacrificed and dorsal root ganglia (DRG) was removed. DRG was incubated with 0.1% trypsin (Gibco BRL) in PBS(−) (Gibco BRL) for 30 min at 37° C., then a half volume of fetal calf serum (FCS) was added and the cells were spun down. The DRG neuron cells were resuspended in Ham F12/5% FCS/5% horse serum (Gibco BRL) and dispersed by repeated pipetting and passing through 70 μm mesh (Falcon). The culture plate was incubated for 3 hours at 37° C. to remove contaminating Schwann cells. Non-adherent cells were recovered and further cultured in laminin-coated 384 well plates (Nunc) at 1×10^4 cells/50 μl/well for 2 days in the presence of 50 ng/ml recombinant rat NGF (Sigma) and 50 μM 5-fluorodeoxyuridine (Sigma). • (2) Ca^2+ Mobilization Assay • DRG neuron cells were washed twice with HBSS supplemented with 17 mM BEPES (pH 7.4) and 0.1% BSA. After incubating with 2 μM fluo-3AM (Volectuar Probe), 0.02% PF127 (Gibco BRL) and 1 mM probenecid (Sigma) for 40 min at 37° C., cells were washed 3 times. The cells were incubated with VR1 antagonists or vehicle (dimethylsulfoxide) and then with 1 μM capsaicin in FDSS-6000 (λex=480 mn, λem=520 nm/Hamamatsu Photonics). The fluorescence changes at […] were monitored for 2.5 min. Integral R was calculated and compared with controls. [Organ Bath Assay to Measure the Capsaicin-induced Bladder Contraction] (Assay 3) • Male Wistar rats (10 week old) were anesthetized with ether and sacrificed by dislocating the necks. The whole urinary bladder was excised and placed in oxygenated Modified Krebs-Henseleit solution (pH 7.4) of the following composition (112 mM NaCl, 5.9 mM KCl, 1.2 mM MgCl2, 1.2 mM NaH2PO4, 2 mM CaCl2, […], 12 mM glucose). Contractile responses of the urinary bladder were studied as described previously [Maggi C A et al: Br. J. Pharmacol. 108: 801-805, 1993]. […]

T1 sequence (Q8NER1 whole entry): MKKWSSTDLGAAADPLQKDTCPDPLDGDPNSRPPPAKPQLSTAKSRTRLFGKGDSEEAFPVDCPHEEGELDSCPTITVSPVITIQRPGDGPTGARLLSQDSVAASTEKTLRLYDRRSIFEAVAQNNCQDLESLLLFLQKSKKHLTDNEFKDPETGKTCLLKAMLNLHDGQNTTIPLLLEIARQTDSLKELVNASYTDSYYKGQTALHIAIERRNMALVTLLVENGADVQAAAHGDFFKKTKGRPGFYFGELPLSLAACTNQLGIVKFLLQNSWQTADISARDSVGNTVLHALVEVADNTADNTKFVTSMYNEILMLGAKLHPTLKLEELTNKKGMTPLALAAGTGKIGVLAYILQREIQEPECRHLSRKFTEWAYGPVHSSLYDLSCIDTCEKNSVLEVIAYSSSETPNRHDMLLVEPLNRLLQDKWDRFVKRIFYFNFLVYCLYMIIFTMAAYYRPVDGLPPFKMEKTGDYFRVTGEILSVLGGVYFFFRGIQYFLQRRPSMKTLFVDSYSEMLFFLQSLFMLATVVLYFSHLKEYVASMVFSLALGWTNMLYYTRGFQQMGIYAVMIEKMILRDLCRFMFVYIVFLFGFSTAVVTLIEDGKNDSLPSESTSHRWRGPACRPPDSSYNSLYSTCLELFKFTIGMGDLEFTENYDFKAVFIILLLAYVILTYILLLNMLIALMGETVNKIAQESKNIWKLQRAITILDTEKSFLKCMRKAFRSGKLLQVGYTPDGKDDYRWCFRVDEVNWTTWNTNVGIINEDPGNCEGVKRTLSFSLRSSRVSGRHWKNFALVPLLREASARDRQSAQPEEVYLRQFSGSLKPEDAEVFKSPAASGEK

Row | SMILES | IC50 [1] [µM] | melting point [°C]
1 | O=C(Nc1cccc2c1CC(O)CC2)C1CCN(c2ccc(F)cc2)CC1 (stereo not drawn) [Example 1-7, 1-(4-Fluorophenyl)-N-(7-hydroxy-5,6,7,8-tetrahydronaphthalen-1-yl)piperidine-4-carboxamide] | < 0.1 | 205
2 | O=C(Nc1cccc2c1C[C@H](O)CC2)C1CCN(c2ccc(Cl)cc2Cl)CC1 [Example 1-17, 1-[2,4-Dichlorophenyl]-N-[(7R)-7-hydroxy-5,6,7,8-tetrahydronaphthalen-1-yl]piperidine-4-carboxamide] | < 0.1 | –
3 | O=C(Nc1cccc2c1C[C@H](O)CC2)C1CCN(c2nccc(C(F)(F)F)n2)CC1 [Example 1-20, N-[(7R)-7-Hydroxy-5,6,7,8-tetrahydronaphthalen-1-yl]-1-[4-trifluoromethyl-pyrimidin-2-yl]-piperidine-4-carboxamide] | < 0.1 | –
4 | O=C(Nc1cccc2c1C[C@H](O)CC2)C1CCN(c2ccccc2)CC1 [Example 1-14] | < 0.1 | –
5 | O=C(Nc1cccc2c1C[C@H](O)CC2)C1CCN(c2ccc(F)cc2)CC1 [Example 1-11, 1-(4-Fluorophenyl)-N-[(7R)-7-hydroxy-5,6,7,8-tetrahydronaphthalen-1-yl]piperidine-4-carboxamide] | < 0.1 | 205
6 | O=C(Nc1cccc2c1C[C@H](O)CC2)C1CCN(c2ccc(OC(F)(F)F)c(OC(F)(F)F)c2)CC1 [Example 1-18, 1-[3,4-Bis[trifluoromethoxy]phenyl]-N-[(7R)-7-hydroxy-5,6,7,8-tetrahydro-naphthalen-1-yl]piperidine-4-carboxamide] | < 0.1 | –
7 | O=C(Nc1cccc2c1C[C@H](O)CC2)C1CCN(c2cccc(Cl)c2)CC1 [Example 1-2, 1-[3-Chlorophenyl]-N-[(7R)-7-hydroxy-5,6,7,8-tetrahydronaphthalen-1-yl]piperidine-4-carboxamide] | < 0.1 | –
8 | O=C(Nc1cccc2c1CC(O)CC2)C1CCN(c2ccccc2[N+](=O)[O-])CC1 (stereo not drawn) [Example 1-4, N-(7-Hydroxy-5,6,7,8-tetrahydronaphthalen-1-yl)-1-(2-nitrophenyl)piperidine-4-carboxamide] | < 0.1 | 170
9 | O=C(Nc1cccc2c1C[C@H](O)CC2)C1CCN(c2ncc(Cl)cn2)CC1 [Example 1-21, 1-[5-Chloropyrimidin-2-yl]-N-[(7R)-7-hydroxy-5,6,7,8-tetrahydronaphthalen-1-yl]piperidine-4-carboxamide] | < 0.1 | –
10 | O=C(Nc1cccc2c1CC(O)CC2)C1CCN(c2ccccc2F)CC1 (stereo not drawn) [Example 1-6, 1-(2-Fluorophenyl)-N-(7-hydroxy-5,6,7,8-tetrahydronaphthalen-1-yl)piperidine-4-carboxamide] | < 0.1 | 207
11 | O=C(Nc1cccc2c1CC(O)CC2)C1CCN(c2ccccc2Cl)CC1 (stereo not drawn) [Example 1-3] | < 0.1 | 210
12 | O=C(Nc1cccc2c1C[C@H](O)CC2)C1CCN(c2ccc(OC(F)(F)F)cc2)CC1 [Example 1-19, N-[(7R)-7-Hydroxy-5,6,7,8-tetrahydronaphthalen-1-yl]-1-[4-trifluoromethoxy-phenyl]piperidine-4-carboxamide] | < 0.1 | –
13 | O=C(Nc1cccc2c1C[C@H](O)CC2)C1CCN(c2cccc(OC(F)(F)F)c2)CC1 [Example 1-16, N-[(7R)-7-Hydroxy-5,6,7,8-tetrahydronaphthalen-1-yl]-1-[3-trifluoromethoxy-phenyl]piperidine-4-carboxamide] | < 0.1 | –
14 | O=C(Nc1cccc2c1C[C@H](O)CC2)C1CCN(c2ccc([N+](=O)[O-])cc2Cl)CC1 [Example 1-22, 1-[2-Chloro-4-nitrophenyl]-N-[(7R)-7-hydroxy-5,6,7,8-tetrahydronaphthalen-1-yl]piperidine-4-carboxamide] | < 0.1 | –
15 | O=C(Nc1cccc2c1C[C@@H](O)CC2)C1CCN(c2ccc(F)cc2)CC1 [Example 1-12, 1-(4-Fluorophenyl)-N-[(7S)-7-hydroxy-5,6,7,8-tetrahydronaphthalen-1-yl]piperidine-4-carboxamide] | < 0.1 | 205

Second part, the compound after the results:

Row | IC50 [1] [µM] | melting point [°C] | SMILES
16 | < 0.1 | – | O=C(Nc1cccc2c1C[C@H](O)CC2)C1CCN(c2cccc(C(F)(F)F)c2)CC1 [Example 1-15, N-[(7R)-7-Hydroxy-5,6,7,8-tetrahydronaphthalen-1-yl]-1-[3-trifluoromethyl-phenyl]piperidine-4-carboxamide]
17 | < 0.1 | 218 | O=C(Nc1cccc2c1CC(O)CC2)C1CCN(c2ccc(C(F)(F)F)cc2[N+](=O)[O-])CC1 (stereo not drawn) [Example 1-5, N-(7-Hydroxy-5,6,7,8-tetrahydronaphthalen-1-yl)-1-[2-nitro(trifluoromethyl)phenyl]piperidine-4-carboxamide]
18 | < 0.1 | 182 | O=C(Nc1cccc2c1CC(O)CC2)C1CCN(c2ccc(Cl)cc2C(F)(F)F)CC1 (stereo not drawn) [Example 1-8, 1-[4-Chloro-2-(trifluoromethyl)phenyl]-N-(7-hydroxy-5,6,7,8-tetrahydronaphthalen-1-yl)piperidine-4-carboxamide]
19 | < 0.1 | 226 | O=C(Nc1cccc2c1CC(O)CC2)C1CCN(c2ccc(C(F)(F)F)cc2Cl)CC1 (stereo not drawn) [Example 1-10, 1-[2-Chloro-4-(trifluoromethyl)phenyl]-N-(7-hydroxy-5,6,7,8-tetrahydronaphthalen-1-yl)piperidine-4-carboxamide]
20 | < 0.1 | – | CC(=O)Nc1cc(C(F)(F)F)ccc1N1CCC(C(=O)Nc2cccc3c2C[C@H](O)CC3)CC1 [Example 1-23]
21 | < 0.1 | – | O=C(Nc1cccc2c1C[C@H](O)CC2)C1CCN(c2ccc(C(F)(F)F)cc2)CC1 [Example 1-25, N-[(7R)-7-Hydroxy-5,6,7,8-tetrahydronaphthalen-1-yl]-1-[4-trifluoromethyl-phenyl]piperidine-4-carboxamide]
22 | < 0.1 | 222 | O=C(Nc1cccc2c1CC(O)CC2)C1CCN(c2ccc(C(F)(F)F)cc2)CC1 (stereo not drawn) [Example 1-9, N-(7-Hydroxy-5,6,7,8-tetrahydronaphthalen-1-yl)-1-[4-(trifuoromethyl)phenyl]piperidine-4-carboxamide]
23 | < 0.1 | – | O=C(Nc1cccc2c1C[C@H](O)CC2)C1CCN(c2ccc(C(F)(F)F)cn2)CC1 [Example 1-24, N-[(7R)-7-Hydroxy-5,6,7,8-tetrahydronaphthalen-1-yl]-1-[5-(trifluoromethyl)-pyridin-2-yl]piperidine-4-carboxamide]
24 | < 0.1 | – | O=C(Nc1cccc2c1C[C@@H](O)CC2)C1CCN(c2ccc(C(F)(F)F)cc2Cl)CC1 [Example 1-1, 1-[2-Chloro-4-(trifluoromethyl)phenyl]-N-[(7S)-7-hydroxy-5,6,7,8-tetrahydro-naphthalen-1-yl]piperidine-4-carboxamide]
25 | < 0.1 | 226 | O=C(Nc1cccc2c1C[C@H](O)CC2)C1CCN(c2ccc(C(F)(F)F)cc2Cl)CC1 [Example 1-13, 1-[2-Chloro-4-(trifluoromethyl)phenyl]-N-[(7R)-7-hydroxy-5,6,7,8-tetrahydronaphthalen-1-yl]piperidine-4-carboxamide]
